21 molecules from patent US20230011571A1, “SMALL MOLECULE FURIN INHIBITORS FOR TREATING INFECTIOUS DISEASES” (BP Asset V, Inc., priority 2019, published 2023) can be followed below.

Common to all, as to assay type: cell-based
The test system of one assay is dengue virus (DENV). Nature of the assay: microbe, parasite or virus in culture. Particulars: Dengue virus, Vero, 120 h, read-out: Percent viral inhibition DENY.
The subject of a further assay is Marburg virus (MARV). Nature of the assay: organism not typed. The following applies: Vero, 72 h, read-out: Percent viral inhibition MARV.
Assay [1] deals with Chikungunya virus (CHIKV). Nature of the assay: microbe, parasite or virus in culture. Particulars: Chikungunya virus, Vero, 48 h, read-out: Percent viral inhibition CHKV.

Broadly, the inhibition is the change of the read-out against control, counted positive when it falls.

Regarding `COCCN1CCN(c2ncc(Oc3cc(CN4CCC(CC(=O)O)CC4)cc(-c4cc(Cl)cc(Cl)c4)n3)cn2)CC1` [Example 247, 2-(1-((2-(3,5-dichlorophenyl)-6-((2-(4-(2-methoxyethyl)piperazin-1-yl)pyrimidin-5-yl)oxy)pyridin-4-yl)methyl)piperidin-4-yl)acetic acid], the inhibition at 1 µM in the assay on dengue virus (DENV) stood at 50%; with Marburg virus (MARV), 49.7%; in assay [1] it was 31.1%.
As to `CCN1C[C@@H]2C[C@H]1CN2c1ncc(Oc2cc(CN3CCC(CC(=O)O)CC3)cc(-c3cc(Cl)cc(Cl)c3)n2)cn1` [Example 232, 2-(1-((2-(3,5-dichlorophenyl)-6-((2-((1S,4S)-5-ethyl-2,5-diazabicyclo[2.2.1]heptan-2-yl)pyrimidin-5-yl)oxy)pyridin-4-yl)methyl)piperidin-4-yl)acetic acid], the inhibition at 1 µM in the assay with dengue virus (DENV) was 19.5%; in the assay with Marburg virus (MARV), 43.4%; in assay [1], 37.1%.
`CN1CCN(c2ncc(Oc3cc(CN4CCC(CC(=O)O)CC4)cc(-c4cc(Cl)cc(Cl)c4)c3)cn2)CC1` [Example 117, 2-(1-((3′,5′-dichloro-5-((2-(4-methylpiperazin-1-yl)pyrimidin-5-yl)oxy)-[1,1′-biphenyl]-3-yl)methyl)piperidin-4-yl)acetic acid]: the inhibition at 1 µM in the assay on dengue virus (DENV) was 28.6%; in the assay on Marburg virus (MARV), 43.6%; in assay [1], 18%.
For `NC(=O)OCCN1CCN(Cc2cc(Oc3ccc(N4CCN(CCC(=O)O)CC4)nc3)nc(-c3cc(Cl)cc(Cl)c3)c2)CC1` [Example 55, 3-(4-(5-((4-((4-(2-(carbamoyloxy)ethyl)piperazin-1-yl)methyl)-6-(3,5-dichlorophenyl)pyridin-2-yl)oxy)pyridin-2-yl)piperazin-1-yl)propanoic acid], in that order: 3.58%, 40.2% and 16.8%.
Consider `CNC1CCN(c2ncc(Oc3cc(CN4CCC(CC(=O)O)CC4)cc(-c4cc(Cl)cc(Cl)c4)n3)cn2)C1` (stereo not drawn) [Example 152, 2-(1-((2-(3,5-dichlorophenyl)-6-((2-(3-(methylamino)pyrrolidin-1-yl)pyrimidin-5-yl)oxy)pyridin-4-yl)methyl)piperidin-4-yl)acetic acid], for which the inhibition at 1 µM with dengue virus (DENV) was determined as 19%; in the assay on Marburg virus (MARV), 44.1%; in assay [1], 16.3%.
Turning to `CC(O)CCN1CCN(c2ncc(Oc3cc(CN4CCC(F)CC4)cc(-c4cc(Cl)cc(Cl)c4)n3)cn2)CC1` (stereo not drawn) [Example 60, 4-(4-(5-((6-(3,5-dichlorophenyl)-4-((4-fluoropiperidin-1-yl)methyl)pyridin-2-yl)oxy)pyrimidin-2-yl)piperazin-1-yl)butan-2-ol], the values for the inhibition at 1 µM (in the assay with dengue virus (DENV); in the assay on Marburg virus (MARV); in assay [1]) were 79%, 53.6% and 38.8%, respectively.
For `CC(O)CC1CCN(Cc2cc(Oc3cnc(N4CCN(C)CC4)nc3)nc(-c3cc(Cl)cc(Cl)c3)c2)CC1` (stereo not drawn) [Example 138, 1-(1-((2-(3,5-dichlorophenyl)-6-((2-(4-methylpiperazin-1-yl)pyrimidin-5-yl)oxy)pyridin-4-yl)methyl)piperidin-4-yl)propan-2-ol], in that order: 54.9%, 32.4% and 21.7%.
Take `CN1CCN(c2ncc(Oc3cc(CN4CCC(CC(N)=O)CC4)cc(-c4cc(Cl)cc(Cl)c4)n3)cn2)CC1` [Example 142, 2-(1-((2-(3,5-dichlorophenyl)-6-((2-(4-methylpiperazin-1-yl)pyrimidin-5-yl)oxy)pyridin-4-yl)methyl)piperidin-4-yl)acetamide]: the inhibition at 1 µM in the assay on dengue virus (DENV) is 51.5%; in the assay with Marburg virus (MARV), 49.1%; in assay [1], 15.4%.
As for `CC(=O)NCC1CCN(Cc2cc(Oc3ccc(N)cn3)cc(-c3cc(Cl)cc(Cl)c3)c2)CC1` [Example 45, N-((1-((5-((5-aminopyridin-2-yl)oxy)-3′,5′-dichloro-[1,1′-biphenyl]-3-yl)methyl)piperidin-4-yl)methyl)acetamide], the figures for the inhibition at 1 µM (in the assay on dengue virus (DENV); with Marburg virus (MARV); in assay [1]) were 0%, 18.4% and 0%, respectively.
As to `CC(CC(=O)O)C1CN(Cc2cc(Oc3cnc(N4CCN(C)CC4)nc3)nc(-c3cc(Cl)cc(Cl)c3)c2)C1` (stereo not drawn) [Example 127, 3-(1-((2-(3,5-dichlorophenyl)-6-((2-(4-methylpiperazin-1-yl)pyrimidin-5-yl)oxy)pyridin-4-yl)methyl)azetidin-3-yl)butanoic acid], the inhibition at 1 µM worked out at 0% with dengue virus (DENV), 52.1% in the assay with Marburg virus (MARV) and 26% in assay [1].
Consider `CCN1CCN(c2ncc(Oc3cc(CN4CCC(CC(=O)O)CC4)cc(-c4cc(Cl)cc(Cl)c4)n3)cn2)CC1` [Example 234, 2-(1-((2-(3,5-dichlorophenyl)-6-((2-(4-ethylpiperazin-1-yl)pyrimidin-5-yl)oxy)pyridin-4-yl)methyl)piperidin-4-yl)acetic acid], for which the inhibition at 1 µM was 36.9% in the assay with dengue virus (DENV), 49.1% in the assay with Marburg virus (MARV) and 26.7% in assay [1].
As to `CC(=O)NCC1CCN(Cc2cc(Oc3ccc(N4CCCN(CCC(=O)O)CC4)nc3)nc(-c3cc(Cl)cc(Cl)c3)c2)CC1` [Example 190, 3-(4-(5-((4-((4-(acetamidomethyl)piperidin-1-yl)methyl)-6-(3,5-dichlorophenyl)pyridin-2-yl)oxy)pyridin-2-yl)-1,4-diazepan-1-yl)propanoic acid], the inhibition at 1 µM was 41.8% with dengue virus (DENV), 44.8% in the assay with Marburg virus (MARV) and 2.11% in assay [1].
`CNC(=O)NCC1CCN(Cc2cc(Oc3ccc(N4CCN(CCOC)CC4)nc3)nc(-c3cc(Cl)cc(Cl)c3)c2)CC1` [Example 254, 1-((1-((2-(3,5-dichlorophenyl)-6-((6-(4-(2-methoxyethyl)piperazin-1-yl)pyridin-3-yl)oxy)pyridin-4-yl)methyl)piperidin-4-yl)methyl)-3-methylurea]: the inhibition at 1 µM was determined as 57% in the assay with dengue virus (DENV), 40.4% with Marburg virus (MARV) and 5.74% in assay [1].
For `CC(=O)NC(=O)NCC1CCN(Cc2cc(Oc3cnc(N4CCN(C)CC4)nc3)nc(-c3cc(Cl)cc(Cl)c3)c2)CC1` [Example 327, N-(((1-((2-(3,5-dichlorophenyl)-6-((2-(4-methylpiperazin-1-yl)pyrimidin-5-yl)oxy)pyridin-4-yl)methyl)piperidin-4-yl)methyl)carbamoyl)acetamide], the results for the inhibition at 1 µM (in the assay on dengue virus (DENV); with Marburg virus (MARV); in assay [1]) were 0%, 63.8% and 0%, respectively.
As to `O=C(O)CC1CCN(Cc2cc(Oc3cnc(N4CC5CC(C4)N5)nc3)nc(-c3cc(Cl)cc(Cl)c3)c2)CC1` [Example 162, 2-(1-((2-((2-(3,6-diazabicyclo[3.1.1]heptan-3-yl)pyrimidin-5-yl)oxy)-6-(3,5-dichlorophenyl)pyridin-4-yl)methyl)piperidin-4-yl) acetic acid], the inhibition at 1 µM in the assay with dengue virus (DENV) amounted to 41.4%; in the assay on Marburg virus (MARV), 72.8%; in assay [1], 30.8%.
For `CNC(=O)NCC1CCN(Cc2cc(Oc3cnc(N4CCN(CCCS(C)(=O)=O)CC4)nc3)nc(-c3cc(F)cc(Cl)c3)c2)CC1` [Example 274, 1-((1-((2-(3-chloro-5-fluorophenyl)-6-((2-(4-(3-(methylsulfonyl)propyl)piperazin-1-yl)pyrimidin-5-yl)oxy)pyridin-4-yl)methyl)piperidin-4-yl)methyl)-3-methylurea], in that order: 56.1%, 49% and 44.4%.
Consider `CC(C)(O)CN1CCN(c2cnc(Oc3cc(CN4CCC(CC(=O)O)CC4)cc(-c4cc(Cl)cc(Cl)c4)n3)cn2)CC1` [Example 343, 2-(1-((2-(3,5-dichlorophenyl)-6-((5-(4-(2-hydroxy-2-methylpropyl)piperazin-1-yl)pyrazin-2-yl)oxy)pyridin-4-yl)methyl)piperidin-4-yl)acetic acid], for which the inhibition at 1 µM in the assay on dengue virus (DENV) is 28.6%; in the assay with Marburg virus (MARV), 51%; in assay [1] it was 35.7%.
Regarding `CCNC(=O)CC1CCN(Cc2cc(Oc3ccc(N4CCN(CCCS(C)(=O)=O)CC4)nc3)nc(-c3cc(Cl)cc(Cl)c3)c2)CC1` [Example 36, 2-(1-((2-(3,5-dichlorophenyl)-6-((6-(4-(3-(methylsulfonyl)propyl)piperazin-1-yl)pyridin-3-yl)oxy)pyridin-4-yl)methyl)piperidin-4-yl)-N-ethylacetamide], the inhibition at 1 µM in the assay on dengue virus (DENV) turned out to be 38%; in the assay on Marburg virus (MARV), 52.5%; in assay [1], 5.78%.
As for `CS(=O)(=O)NCC1CCN(Cc2cc(Oc3ccc(N4CCN(CCC(=O)O)CC4)nc3)nc(-c3cc(Cl)cc(Cl)c3)c2)CC1` [Example 44, 3-(4-(5-((6-(3,5-dichlorophenyl)-4-((4-(methylsulfonamidomethyl)piperidin-1-yl)methyl)pyridin-2-yl)oxy)pyridin-2-yl)piperazin-1-yl)propanoic acid], the inhibition at 1 µM is 69% in the assay on dengue virus (DENV), 49% in the assay with Marburg virus (MARV) and 35.5% in assay [1].
For the molecule `NS(=O)(=O)CCCN1CCN(c2ccc(Oc3cc(CN4CCC(CC(=O)O)CC4)cc(-c4cc(Cl)cc(Cl)c4)n3)cn2)CC1` [Example 252, 2-(1-((2-(3,5-dichlorophenyl)-6-((6-(4-(3-sulfamoylpropyl)piperazin-1-yl)pyridin-3-yl)oxy)pyridin-4-yl)methyl)piperidin-4-yl)acetic acid], the inhibition at 1 µM came to 23.3% in the assay on dengue virus (DENV), 53.5% in the assay on Marburg virus (MARV) and 33.2% in assay [1].
As to `CNC(=O)NCC1CCN(Cc2cc(Oc3cnc(N4CCN(CC(C)C(=O)O)CC4)nc3)cc(-c3cc(Cl)cc(Cl)c3)c2)CC1` (stereo not drawn) [Example 292, 3-(4-(5-((3′,5′-dichloro-5-((4-((3-methylureido)methyl)piperidin-1-yl)methyl)-[1,1′-biphenyl]-3-yl)oxy)pyrimidin-2-yl)piperazin-1-yl)-2-methylpropanoic acid], the inhibition at 1 µM with dengue virus (DENV) came out at 26%; in the assay on Marburg virus (MARV), 54.2%; in assay [1], 15.9%.
